Test results as given in patent publication US20200165257A1, “INHIBITORS OF PHOSPHOINOSITIDE 3-KINASE AND HISTONE DEACETYLASE FOR TREATMENT OF CANCER” (THE UNITED STATES OF AMERICA, AS REPRESENTED BY THE …, priority 2017, published 2020).

What was measured:
[1] = target: T1, HDAC6 (Homo sapiens, UniProt Q9UBN7); experiment: HDAC Fluorescent Activity Assay; type: biochemical; settings: symbols ++ / +; read-out: HDAC6 Inhibition Activity (IC50 class)
T1 sequence (Q9UBN7 1-1215): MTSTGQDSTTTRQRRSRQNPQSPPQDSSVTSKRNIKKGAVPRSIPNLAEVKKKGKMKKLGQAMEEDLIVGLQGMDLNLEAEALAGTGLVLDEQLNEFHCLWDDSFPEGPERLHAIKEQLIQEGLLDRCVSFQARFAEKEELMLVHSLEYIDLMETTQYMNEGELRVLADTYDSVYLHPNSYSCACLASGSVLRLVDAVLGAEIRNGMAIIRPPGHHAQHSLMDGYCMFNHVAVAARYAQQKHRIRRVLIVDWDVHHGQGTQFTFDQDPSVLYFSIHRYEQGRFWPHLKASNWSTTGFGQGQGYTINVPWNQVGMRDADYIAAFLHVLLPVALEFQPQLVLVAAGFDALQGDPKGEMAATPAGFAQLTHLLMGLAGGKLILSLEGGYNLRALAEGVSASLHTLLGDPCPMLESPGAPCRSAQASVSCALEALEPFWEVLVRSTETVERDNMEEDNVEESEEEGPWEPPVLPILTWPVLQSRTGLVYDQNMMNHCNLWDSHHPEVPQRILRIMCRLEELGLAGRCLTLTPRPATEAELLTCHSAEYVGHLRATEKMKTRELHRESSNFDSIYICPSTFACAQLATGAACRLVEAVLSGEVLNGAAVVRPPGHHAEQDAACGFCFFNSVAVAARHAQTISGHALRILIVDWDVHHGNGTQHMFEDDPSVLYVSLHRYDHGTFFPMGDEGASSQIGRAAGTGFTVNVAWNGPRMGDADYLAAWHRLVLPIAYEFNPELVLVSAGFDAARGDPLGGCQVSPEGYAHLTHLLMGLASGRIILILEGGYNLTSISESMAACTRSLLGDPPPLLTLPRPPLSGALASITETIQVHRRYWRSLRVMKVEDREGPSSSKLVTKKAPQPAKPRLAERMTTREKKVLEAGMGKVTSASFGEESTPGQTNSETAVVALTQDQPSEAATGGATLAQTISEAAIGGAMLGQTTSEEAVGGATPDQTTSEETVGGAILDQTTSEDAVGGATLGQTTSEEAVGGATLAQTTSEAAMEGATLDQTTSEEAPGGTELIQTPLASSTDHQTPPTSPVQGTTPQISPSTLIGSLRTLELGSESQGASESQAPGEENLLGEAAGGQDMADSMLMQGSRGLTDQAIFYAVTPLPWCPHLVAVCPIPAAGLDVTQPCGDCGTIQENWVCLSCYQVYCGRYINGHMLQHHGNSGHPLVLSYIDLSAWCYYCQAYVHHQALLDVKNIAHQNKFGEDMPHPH

[2] = test system: Leukemia Cell Line CCRF-CEM; experiment: cells; type: cell-based; settings: Homo sapiens, single dose, 10 uM compound concentration, read-out: inhibition of proliferation
[3] = test system: Leukemia Cell Line K-562; type: cell-based; settings: Homo sapiens, K562; K-562; single dose, 10 uM compound concentration; read-out: inhibition of proliferation
[4] = test system: Leukemia Cell Line RPMI-8226; type: cell-based; settings: Homo sapiens; RPMI-8226; single dose, 10 uM compound concentration; read-out: inhibition of proliferation
[5] = test system: Leukemia Cell Line SR; experiment: cells; type: cell-based; settings: Homo sapiens; SR; single dose, 10 uM compound concentration; read-out: inhibition of proliferation
[6] = test system: Ovarian Cell Line IGROV1; type: cell-based; settings: Homo sapiens, IGROV-1; IGROV1; single dose, 10 uM compound concentration; read-out: inhibition of proliferation
[7] = test system: Ovarian Cell Line OVCAR-8; experiment: cells; type: cell-based; settings: Homo sapiens; OVCAR-8; single dose, 10 uM compound concentration; read-out: inhibition of proliferation
[8] = test system: Ovarian Cell Line OVCAR-3; experiment: cells; settings: Homo sapiens, OVCAR-3, read-out: inhibition of proliferation
[9] = test system: Breast Cancer Cell Line MDA-MB-468; experiment: cells; settings: Homo sapiens, MDA-MB-468, read-out: inhibition of proliferation

CC[C@H](Nc1nc(N)nc(C)c1C#N)c1nc2cccc(CN(C)c3ncc(C(=O)NO)cn3)c2c(=O)n1-c1ccccc1 [LII, (S)-2-(((2-(1-((2-amino-5-cyano-6-methylpyrimidin-4-yl)amino)propyl)-4-oxo-3-phenyl-3,4-dihydroquinazolin-5-yl)methyl)(methyl)amino)-N-hydroxypyrimidine-5-carboxamide]
IC50 [1]: < 100 nM
inhibition at 10 µM [2]: > 50%
inhibition at 10 µM [3]: > 50%
inhibition at 10 µM [4]: > 50%
inhibition at 10 µM [5]: > 50%
inhibition at 10 µM [6]: > 50%
inhibition at 10 µM [7]: > 50%
inhibition at 10 µM [8]: > 50%
inhibition at 10 µM [9]: > 50%
